This passage reports EC50 and IC50 results from US7888464B2, “Hepatitis C virus inhibitors” (Bristol-Myers Squibb Company, priority 2006, dated 2011).

Each structure is given as a SMILES string.

The test system of assay [1] is HCV replicon (Renilla luciferase reporter) in HUH-7 cells. In words: HCV replicon luciferase reporter assay. The assay is classed as cell-based. Conditions: Huh-7, read-out: EC50 in the replicon Luciferase assay. The text has this: An HCV replicon whole cell system was established as described by Lohmann V, Korner F, Koch J, Herian U, Theilmann L, Bartenschlager R., Science 285(5424): 110-3 (1999). This system enabled us to evaluate the effects of our HCV Protease compounds on HCV RNA replication. Briefly, using the HCV strain 1b sequence described in the Lohmann paper (Assession number: AJ238799), an HCV cDNA was synthesized by Operon Technologies, Inc. (Alameda, Calif.), and the full-length replicon was then assembled in plasmid pGem9zf(+) (Promega, Madison, Wis.) using standard molecular biology techniques. The replicon consists of (i) the HCV 5′ UTR fused to the first 12 amino acids of the capsid protein, (ii) the neomycin phosphotransferase gene (neo), (iii) the IRES from encephalomyocarditis virus (EMCV), and (iv) HCV NS3 to NS5B genes and the HCV 3′ UTR. […]
As a secondary assay, EC50 determinations from the replicon FRET assay were confirmed in a replicon luciferase reporter assay. […] Following 4 days in a 37° C./5% CO2 incubator, cells were analyzed for Renilla Luciferase activity using the Promega Dual-Glo Luciferase Assay System. […] Plates were read on a Packard TopCount NXT using a luminescence program.
The percentage inhibition was calculated using the formula below: […]
The values were graphed and analyzed using XLfit to obtain the EC50 value.

Assay [2] has as its target T1, human liver cathepsin B (Homo sapiens, UniProt P07858).
T1 construct: purchased Sigma, EMDbiosciences; host or cells: human liver
The experiment in a line: Specificity assay, cathepsin B. The assay is classed as biochemical. Conditions: read-out: Cathepsin B activity in the specificity assays. As for the experimental part:
(§1) The specificities of compounds of the present disclosure were determined against a variety of serine proteases: human neutrophil elastase (HNE), porcine pancreatic elastase (PPE) and human pancreatic chymotrypsin and one cysteine protease: human liver cathepsin B. In all cases a 96-well plate format protocol using a fluorometric Amino-Methyl-Coumarin (AMC) substrate specific for each enzyme was used as described previously (PCT Patent Application No. WO 00/09543) with some modifications to the serine protease assays. All enzymes were purchased from Sigma, EMDbiosciences while the substrates were from Bachem, Sigma and EMDbiosciences.
(§2) Compound concentrations varied from 100 to 0.4 μM depending on their potency. The enzyme assays were each initiated by addition of substrate to enzyme-inhibitor pre-incubated for 10 min at room temperature and hydrolysis to 15% conversion as measured on cytofluor.
100 mM NaOAC (Sodium Acetate) pH 5.5, 3% DMSO, 1 mM TCEP (Tris(2-carboxyethyl)phosphine hydrochloride), 5 nM Cathepsin B (enzyme stock activated in buffer containing 20 mM TCEP before use), and 2 μM Z-FR-AMC diluted in H2O.
(§3) The percentage of inhibition was calculated using the formula: [1−((UVinh−UVblank)/(UVctl−UVblank))]×100
(§4) A non-linear curve fit was applied to the inhibition-concentration data, and the 50% effective concentration (IC50) was calculated by the use of Excel XLfit software.

Assay [3] deals with T2, porcine pancreatic elastase (PPE) (Sus scrofa, UniProt P00772).
T2 construct: purchased Sigma, EMDbiosciences
The experiment in a line: Specificity assay, pancreatic elastase. The assay is classed as biochemical. Conditions: read-out: PPE activity in the specificity assays. As for the experimental part:
as §1, §2
50 mM Tris-HCl, pH 8.0, 50 mM NaCl, 0.1 mM EDTA, 3% DMSO, 0.02% Tween-20, 5 μM succ-AAPV-AMC and 20 nM HNE or 8 nM PPE;
as §3, §4

T2 sequence (P00772 27-266): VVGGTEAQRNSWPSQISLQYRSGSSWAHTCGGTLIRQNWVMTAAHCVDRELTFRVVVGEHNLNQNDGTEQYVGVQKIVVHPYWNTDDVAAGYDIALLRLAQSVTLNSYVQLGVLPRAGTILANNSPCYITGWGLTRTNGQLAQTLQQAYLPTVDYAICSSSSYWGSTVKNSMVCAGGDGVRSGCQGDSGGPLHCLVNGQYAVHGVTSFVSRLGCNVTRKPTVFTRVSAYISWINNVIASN

Turning to `C=C[C@@H]1C[C@]1(NC(=O)[C@@H]1C[C@@](O)(c2ccc(-c3ccccc3)cc2)CN1C(=O)[C@@H](NC(=O)OC(C)(C)C)C(C)(C)C)C(=O)NS(=O)(=O)C1CC1` [Compound 3], the EC50 in assay [1] was 0.0014 µM. Moreover, the IC50 in assay [2] and in assay [3] was above 100 µM throughout.
